Reference: patent US10639277B1, “Multi-functional echogenic immunoliposomes for directed stem cell delivery to atheroma” (BOARD OF REGENTS OF THE UNIVERSITY OF TEXAS SYSTEM, priority 2009, dated 2020)

Tests used:
[1] = system: canine fetal myoblasts; experiment: SDF-1 induced transwell cell migration; assay type: cell-based; conditions: 30 μM
Method: Cells were placed at a concentration of 5×10^4/well in the upper chamber (BD Biosciences), and the chamber was placed in a 24-well culture plate (BD Biosciences) containing culture medium and 100 nM SDF-1 for measuring the migratory capacity of myoblast cells. After 48 hours of incubation at 37° C., the medium was removed, and the insert was transferred to a second plate containing Calcein-AM solution. The plates were incubated for 90 minutes at 37° C. in a 5% CO2 incubator. The fluorescence of migrating cells was read in a fluorescence microplate reader with bottom reading capabilities at excitation/emission wavelengths of 485/530 nm. […] Apoj expression can also provide protection against apoptotic stem cell death. This finding is consistent with published results that ApoJ expression can provide some protection against apoptotic cell death. Exposure to oxidized cholesterol or oxysterol often triggers apoptosis in a variety of cells and atheroma contains abundant oxysterols such as 7-ketocholsterol. Therefore, a study was done to establish that ApoJ expression will exert protective effects against apoptotic cell death for stem cells. After incubation of vascular smooth muscle cells from the aorta of ApoJ-knockout mice or wild-type mice with 10 μg/ml 7-ketocholsterol for 24-48 the cells were examined for viability by stained with a combination of acridine orange and ethidium bromide. […]

[2] = system: KG-293 cells; experiment: TCN-induced ApoJ expression and TNF-α induced apoptosis in KG-293 cells; assay type: cell-based, human; conditions: 10 ng/ml for 24- and 48-hours
Description: Recent studies have shown that ApoJ can be induced by certain growth factors such as TGF-ß translocate to the nucleus participating in apoptosis regulation. To determine whether intracellular expression of ApoJ inhibits receptor-mediated apoptosis induced by cytokines, we constructed a plasmid (pkS7) with ApoJ cDNA insert lacking the sequence for the domain of protein secretion. The non-secreted, intracellular isoform of ApoJ gene mimics the intracellular isoform inducible by TGF-ß. Under regulation by a CMV promoter with TCN-responding elements, pKS7 transfection of HEK293 cells generated a stable cell line (KG-293) with ApoJ over expression. […] KG-293 cells over expressing the intracellular form of ApoJ also underwent dramatic alterations in morphology and proliferation.

| Molecule | effect on SDF-1 induced migration of ApoJ-overexpressing myoblasts [1] | apoptosis in control KG-293 cells not exposed to TCN [2] |
| --- | --- | --- |
| COc1cccc(-c2cc(=O)c3ccccc3o2)c1N [PD98059] | did not have any significant impact | – |
| TNF-α | – | marked apoptosis |
